Laboratory results reported in US20230321085A1, “COMPOUND FOR USE IN THE TREATMENT OF DRY MOUTH” (ASAHI PHARMA CO., LTD., priority 2020, published 2023).

Columns and labels:
awake rats = assay: effect on salivation in awake rats (oral administration); format: in vivo, rat; conditions: for duration of effect on salivation: oral administration to awake rats
Experimental: Pilocarpine therefore alleviates the dry mouth symptoms, but it leads to hyperhidrosis as a further side effect. Moreover, experiments in rats have shown that the effect of pilocarpine on salivation is only short-lived and that initial salivation levels are approached after about 60 minutes (FIG. 1).
Moreover, experiments have shown that its effect on salivation is long-lasting (FIG. 2 as well as FIGS. 3, 4 and 5).

[1] = test system: healthy non-elderly male and female subjects; assay: single ascending oral dose clinical study of the compound of the invention (first part); format: in vivo, human; conditions: single oral dose 1, 3, 10, 30, 100, 150 mg
Experimental: In the first part of a randomized, subject- and investigator-blinded, placebo-controlled, single ascending oral dose, parallel group study comprising of 7 cohorts (cohorts 1.1 to 1.7) the compound of the invention was administered at dose levels of 1, 3, 10, 30, 100, and 150 mg. Each cohort consisted of 8 healthy non-elderly male and female subjects who were randomized to receive the compound or matching placebo in a 3:1 ratio.
After a screening period of 21 days, eligible subjects who had signed an informed consent form (ICF) to participate in the study were residential for a single treatment period of 5 days/4 nights. Subjects were admitted to the clinical unit on day −1. After randomization on day 1, subjects received a single oral dose of the compound or matching placebo under fasting. Each cohort was completed with an end-of-study visit, which took place 5 to 9 days after the last pharmacokinetic sample had been collected (or early discontinuation from the study).

[2] = test system: healthy non-elderly and elderly male and female subjects; assay: multiple ascending oral dose clinical study of the compound of the invention (second part); format: in vivo, human; conditions: multiple oral doses 10, 30, 100, 150 mg
Experimental: The second part of the study investigated, multiple ascending oral doses in 4 cohorts (cohorts 2.1 to 2.4). Each cohort consisted of 12 healthy non-elderly male and female subjects, one optional cohort (cohort 2.5) consisting of 12 healthy nonelderly male and female subjects and one cohort (cohort 2.6) consisting of 12 healthy elderly male and female subjects who were randomized to receive the compound or matching placebo in a 3:1 ratio.
Actual dose levels were 10, 30, 100 and 150 mg of the compound (cohorts 2.1 to 2.4, respectively). The optional cohort 2.5 was not enrolled. The actual dose level for the elderly cohort (cohort 2.6) was 150 mg of the compound.
Sentinel dosing was employed for all cohorts. The first 2 subjects within a cohort (1 subject received the compound and 1 subject received matching placebo) were dosed at least 5 minutes apart. These 2 subjects were monitored for safety for 48 hours after receiving the first dose while dosing was continued. The remaining 10 subjects (8 with the compound and 2 with matching placebo) were divided into 2 sub-cohorts and were dosed at least 48 hours after the first 2 subjects with 48 hours between the 2 sub-cohorts.

[3] = clinical study with a reference M3 PAM (similar to first study in Example 2); format: in vivo, human; conditions: dose levels of 1, 3, 10, 30 and 90 mg, FIG. 6
Experimental: In a study similar to the first study in Example 2, a known M3 positive allosteric modulator reference compound (example 8 of EP 2 963 036) with the following structure
was administered in dose levels of 1, 3, 10, 30 and 90 mg.

healthy subjects = assay: Phase 1 study of the effect of pilocarpine on salivary secretion in healthy subjects; format: in vivo, human; conditions: for participants reporting hyperhidrosis as side effect: periods 1 to 4
Experimental: A Phase 1 study to investigate the effect of pilocarpine on salivary secretion was conducted in 12 healthy subjects. The study was conducted as a randomized, subject- and investigator-blinded, placebo-controlled, oral dose clinical study using a 5-way balanced extra period design. Pilocarpine capsules containing 2.5 mg were administered orally (1 capsule for a 2.5 mg dose, 2 capsules for a dose of 5.0 mg pilocarpine and 4 capsules for a dose of 10 mg pilocarpine). Subjects were admitted to the clinical unit on day 1 and were residential for a period of 6 days and 5 nights. Subjects were randomized to 1 of 4 treatment sequences on day 1 prior to study drug administration. Each study period was approximately 1 day and subjects received the different oral doses of the study drug (pilocarpine or placebo to match) in periods 1 through 5. There was a 4-hour saliva collection period following every dose and a washout period of at least 24 hours between doses. To assess the pharmacodynamic effect of pilocarpine on saliva secretion, saliva samples were collected over 5-minute intervals from pre-dose until 4 hours post-dose at the timepoints 0.5, 0.75, 1.0, 1.5, 2.0, 3.0 and 4.0 h.

Structure (SMILES)	duration of effect on salivation (awake rats) [h]	hyperhidrosis as a side effect [1]	salivary secretion rates ([1]; FIG. 4)	hyperhidrosis as a side effect [2]	salivary secretion rates ([2]; FIG. 5)	impact on salivation [3]	time after which initial salivation levels are approached (awake rats; rats, FIG. 1)	sweating (healthy subjects; clinically relevant doses (5 mg and 10 mg qd))	effect on salivation (healthy subjects; human trials, 2.5, 5 and 10 mg pilocarpine)	participants reporting hyperhidrosis as side effect (healthy subjects; pilocarpine dose of 5 mg) [%]	participants reporting hyperhidrosis as side effect (healthy subjects; pilocarpine dose of 10 mg) [%]
C[C@@H]1CCCN1Cc1sc(NC(=O)c2cnc(N3CCN(CCC(=O)O)[C@@H](C)C3)cn2)nc1-c1cc(Cl)cs1 [compound of the invention]	≥ 8	not reported	increased salivary secretion rates	not reported	increased salivary secretion rates						
CC[C@@H]1CCCN1Cc1sc(NC(=O)c2cnc(N3CCC(C(=O)O)CC3)cn2)nc1-c1ccc(OC)c(C(F)(F)F)c1 [example 8 of EP 2 963 036]						do not significantly impact salivation					
CC[C@@H]1C(=O)OC[C@@H]1Cc1cncn1C [pilocarpine]	≤ 1						about 60 minutes	a significant number of the patients suffered from sweating	increased salivation	8.3	50
